Tests used:
[1] = target: PKA (Homo sapiens, UniProt P17612); test: PKA inhibition assay; format: biochemical
Text: (§1) Methods for obtaining A-type and P-type mediators are set out in Caro et al, 1997, and in WO98/11116 and WO98/11117. Protocols for determining characteristic IPG biological activities such as PDH activation, PKA inhibition, acetylCoA activation, fructose-1,6-bis-phosphatase activity and lipogenesis are well known in the art or provided in the experimental section below.
(§2) The compounds of the invention can be tested for one or more the characteristic IPG-P and/or IPG-A activities mentioned above to determine whether they will be suitable for use a IPG mimetics or antagonists. Preferred assays measure the effect of the compounds on PDH phosphatase, PKA or lipogenesis. Protocols for these assays are provided in Caro et al^[14].

[2] = target: T1, PDH phosphatase (Homo sapiens, UniProt Q9P0J1); test: PDH activation assay; format: biochemical; settings: 100 μM compound
T1 sequence (Q9P0J1 72-537): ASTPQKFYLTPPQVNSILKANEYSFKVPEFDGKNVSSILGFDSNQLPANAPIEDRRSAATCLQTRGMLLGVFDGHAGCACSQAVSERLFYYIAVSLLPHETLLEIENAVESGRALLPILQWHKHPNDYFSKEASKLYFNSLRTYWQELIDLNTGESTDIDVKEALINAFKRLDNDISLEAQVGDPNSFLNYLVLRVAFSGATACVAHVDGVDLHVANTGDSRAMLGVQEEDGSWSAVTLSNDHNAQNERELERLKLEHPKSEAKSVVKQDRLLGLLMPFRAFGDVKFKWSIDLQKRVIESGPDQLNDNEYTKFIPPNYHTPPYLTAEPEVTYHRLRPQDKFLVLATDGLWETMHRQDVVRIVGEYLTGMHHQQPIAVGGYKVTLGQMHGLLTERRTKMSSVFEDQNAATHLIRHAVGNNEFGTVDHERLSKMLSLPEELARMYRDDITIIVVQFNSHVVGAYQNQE
Text: as §1, §2

With “6-O-(2-Ammonio-2-deoxy-β-D-glucopyranosyl)-D-chiro-inositol-1-phosphate [RGL1019]” the PKA inhibition ([1]; 0.1 μM compound) was 32% and the PKA inhibition ([1]; 10 μM compound) was 31%.
COC1C(O)C(O)C(OC2OC(CO)C(O)C(O)C2N)C(O)C1O [RGL1015, O-(2-amino-2-deoxy-D-glucopyranosyl)-β(1,6)-3-O-methyl-chiro-inositol] gave a PDH activation [2] of 38%, a PKA inhibition ([1]; 0.1 μM compound) of 14% and a PKA inhibition ([1]; 1.0 μM compound) of 15%. The PKA inhibition ([1]; 10 μM compound) was 12%.
NC1C(OC2C(O)C(O)C(O)C(O)C2O)OC(CO)C(O)C1O [RGL1018, 6-O-(2-Amino-2-deoxy-β-D-glucopyranosyl)-D-chiro-inositol] gave a PKA inhibition ([1]; 0.1 μM compound) of 19%.
With NC1C(OC2C(O)C(O)C(O)C(O)C2O)OC(COP(=O)(O)O)C(O)C1O [RGL1023, 1′-D-6-O-(2′-amino-2′-deoxy-6′-phosphate-α-D-glucopyranosyl)-myo-inositol] the PDH activation [2] was 14%.
In the case of CO[C@H]1[C@H](O)[C@@H](O)[C@@H](O[C@H]2O[C@H](CO)[C@@H](O)[C@H](O)[C@H]2N)[C@H](O)[C@@H]1O [RGL1024, O-(2-amino-2-deoxy-D-glucopyranosyl)-α(1,6)-D-3-O-methyl-chiro-inositol], the PDH activation [2] is reported as 65%, the PKA inhibition ([1]; 0.1 μM compound) is reported as 17% and the PKA inhibition ([1]; 1.0 μM compound) is reported as 34%. For the same compound, the PKA inhibition ([1]; 10 μM compound) was 2%.
N[C@H]1[C@@H](O[C@H]2[C@H](O)[C@H](O)[C@H](O)[C@@H](O)[C@@H]2O)O[C@H](CO)[C@@H](OP(=O)(O)O)[C@@H]1O [RGL1027, 1′-D-6-O-(2′-amino-2′-deoxy-4′-phosphate-α-D-glucopyranosyl)-myo-inositol] was tested, and the PDH activation [2] was 132%, the PKA inhibition ([1]; 0.1 μM compound) was 18% and the PKA inhibition ([1]; 10 μM compound) was 10%.
N[C@H]1[C@@H](O[C@H]2[C@H](O)[C@H](O)[C@H](O)[C@@H](O)[C@@H]2O)O[C@H](CO)[C@@H](O)[C@@H]1OP(=O)(O)O [RGL1029, 1′-D-6-O-(2′-amino-2′-deoxy-3′-phosphate-α-D-glucopyranosyl)-myo-inositol] gave a PDH activation [2] of 361%, a PKA inhibition ([1]; 0.1 μM compound) of 59% and a PKA inhibition ([1]; 10 μM compound) of 33%.
“O-(2-amino-2deoxy-D-galactopyranosyl)-α(1,6)-D-3-O-methyl-chiro-inositol [RGL1025]” gave a PDH activation [2] of 17%, a PKA inhibition ([1]; 0.1 μM compound) of 48% and a PKA inhibition ([1]; 1.0 μM compound) of −13%.

From patent US7235533B2, “Compounds and their uses” (Rodaris Pharmaceuticals Limited, priority 2000, dated 2007)
